Measured values published in ChEMBL document CHEMBL4665789, “Discovery of Novel pERK1/2- or β-Arrestin-Preferring 5-HT Receptor-Biased Agonists: Diversified Therapeutic-like versus Side Effect Profile” (J Med Chem, 2020).
One block for each compound: values may come before it. The source made the active and inactive calls. The rule behind the calls is not given here.

How the values were obtained:
[1] = molecular target: T1, Adrenergic receptor alpha-1 (Rattus norvegicus, UniProt P15823+P23944+P43140); assay: Displacement of [3H]prazosin from alpha1 adrenergic receptor in rat cortex membranes measured after 30 mins by Microbeta2 scintillation counting method; assay type: cell membranes
T1 sequence (P15823 whole entry): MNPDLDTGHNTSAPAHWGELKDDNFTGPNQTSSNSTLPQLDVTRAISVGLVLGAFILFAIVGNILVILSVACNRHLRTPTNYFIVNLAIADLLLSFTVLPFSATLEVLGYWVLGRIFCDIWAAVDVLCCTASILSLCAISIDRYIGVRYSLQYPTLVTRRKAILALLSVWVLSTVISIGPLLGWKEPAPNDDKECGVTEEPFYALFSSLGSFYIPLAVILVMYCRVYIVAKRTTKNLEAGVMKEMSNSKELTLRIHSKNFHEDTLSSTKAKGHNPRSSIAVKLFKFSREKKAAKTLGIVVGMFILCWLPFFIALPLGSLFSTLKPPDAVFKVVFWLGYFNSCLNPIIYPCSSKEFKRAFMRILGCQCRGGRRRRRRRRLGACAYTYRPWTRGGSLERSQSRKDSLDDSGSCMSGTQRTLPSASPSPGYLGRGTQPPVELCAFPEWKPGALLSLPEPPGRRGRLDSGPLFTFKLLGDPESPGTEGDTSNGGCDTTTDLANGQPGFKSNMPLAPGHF
T1 sequence (P23944 whole entry): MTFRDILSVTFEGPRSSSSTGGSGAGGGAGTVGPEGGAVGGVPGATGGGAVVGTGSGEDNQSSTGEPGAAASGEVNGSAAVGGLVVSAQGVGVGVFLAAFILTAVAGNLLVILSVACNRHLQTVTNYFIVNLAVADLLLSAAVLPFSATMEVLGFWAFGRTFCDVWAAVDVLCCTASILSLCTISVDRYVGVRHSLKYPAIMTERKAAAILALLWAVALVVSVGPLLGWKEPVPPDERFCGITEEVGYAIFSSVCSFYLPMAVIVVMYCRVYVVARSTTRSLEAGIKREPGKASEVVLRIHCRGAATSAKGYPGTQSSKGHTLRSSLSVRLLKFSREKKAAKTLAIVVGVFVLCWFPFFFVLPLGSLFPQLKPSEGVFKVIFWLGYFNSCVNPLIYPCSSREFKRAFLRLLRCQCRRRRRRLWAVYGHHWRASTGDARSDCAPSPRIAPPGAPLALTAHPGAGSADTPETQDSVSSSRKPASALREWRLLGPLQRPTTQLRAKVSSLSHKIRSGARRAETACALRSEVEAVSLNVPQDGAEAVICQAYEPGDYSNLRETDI
T1 sequence (P43140 whole entry): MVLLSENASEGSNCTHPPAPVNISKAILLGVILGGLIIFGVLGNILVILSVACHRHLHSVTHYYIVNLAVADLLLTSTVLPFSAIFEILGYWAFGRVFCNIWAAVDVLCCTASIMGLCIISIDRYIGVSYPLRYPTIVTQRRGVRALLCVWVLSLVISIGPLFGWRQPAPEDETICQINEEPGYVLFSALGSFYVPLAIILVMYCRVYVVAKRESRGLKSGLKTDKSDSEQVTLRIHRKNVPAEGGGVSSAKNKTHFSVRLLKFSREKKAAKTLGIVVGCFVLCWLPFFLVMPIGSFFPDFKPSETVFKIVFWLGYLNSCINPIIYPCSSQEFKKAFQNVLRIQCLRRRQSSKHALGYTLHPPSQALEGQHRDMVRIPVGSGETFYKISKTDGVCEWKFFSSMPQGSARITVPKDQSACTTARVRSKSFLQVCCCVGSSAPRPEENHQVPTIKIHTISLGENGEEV

[2] = molecular target: T2, 5-hydroxytryptamine receptor 1A (Homo sapiens, UniProt P08908); assay: Biased agonist activity at human 5-HT1A receptor stably expressed in CHO-K1 cells co-expressing Galpha16/GPCR assessed as increase in calcium mobilization measured for 30 secs in presence of coelenterazine by aequorin-reporter gene based luminescence assay; assay type: functional, cell-based
T2 sequence (P08908 whole entry): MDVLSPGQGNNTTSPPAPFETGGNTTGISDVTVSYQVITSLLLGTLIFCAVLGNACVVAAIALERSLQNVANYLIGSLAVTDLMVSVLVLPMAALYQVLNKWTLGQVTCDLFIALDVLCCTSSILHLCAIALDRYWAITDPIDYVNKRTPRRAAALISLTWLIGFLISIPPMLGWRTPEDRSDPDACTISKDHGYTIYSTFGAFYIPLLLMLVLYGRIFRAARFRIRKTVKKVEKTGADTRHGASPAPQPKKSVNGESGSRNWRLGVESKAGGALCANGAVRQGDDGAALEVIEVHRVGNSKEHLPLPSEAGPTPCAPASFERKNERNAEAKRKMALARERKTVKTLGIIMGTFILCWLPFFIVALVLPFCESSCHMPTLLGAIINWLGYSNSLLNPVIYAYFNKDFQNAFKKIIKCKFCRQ

[3] = molecular target: T2, 5-hydroxytryptamine receptor 1A; assay: Biased agonist activity at human 5-HT1A receptor stably expressed in CHO-K1 cells assessed as increase in ERK1/2 phosphorylation after 15 mins by Alphalisa assay
[4] = molecular target: T2, 5-hydroxytryptamine receptor 1A; assay: Displacement of [3H]8-OH-DPAT from human 5-HT1A receptor stably expressed in CHO-K1 cell membranes measured after 60 mins by Microbeta2 scintillation counting method
[5] = molecular target: T2, 5-hydroxytryptamine receptor 1A; assay: Biased agonist activity at human 5-HT1A receptor stably expressed in CHO-K1 cells assessed as inhibition of forskolin-induced cAMP accumulation after 40 mins by LANCE Ultra cAMP kit-based TR-FRET assay; assay type: functional, cell-based
D(2) dopamine receptor = D(2) dopamine receptor (Homo sapiens, UniProt P14416); assay: Displacement of [3H]methylspiperone from human D2 receptor stably expressed in CHO-K1 cell membranes measured after 60 mins by Microbeta2 scintillation counting method
Chain of D(2) dopamine receptor (P14416 whole entry, the tested form may be a part): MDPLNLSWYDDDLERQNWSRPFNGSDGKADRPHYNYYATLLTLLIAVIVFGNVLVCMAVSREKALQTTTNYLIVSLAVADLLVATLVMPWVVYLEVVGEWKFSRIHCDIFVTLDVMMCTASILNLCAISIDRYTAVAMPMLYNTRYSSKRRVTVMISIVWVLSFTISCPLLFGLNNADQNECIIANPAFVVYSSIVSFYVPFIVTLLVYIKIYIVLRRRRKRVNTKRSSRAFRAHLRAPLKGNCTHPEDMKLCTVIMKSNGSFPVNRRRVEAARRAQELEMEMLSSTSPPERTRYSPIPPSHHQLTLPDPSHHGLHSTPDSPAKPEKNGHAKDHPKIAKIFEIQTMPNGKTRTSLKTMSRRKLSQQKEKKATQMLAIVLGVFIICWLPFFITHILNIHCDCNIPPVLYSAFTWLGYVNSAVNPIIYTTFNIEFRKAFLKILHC

[6] = molecular target: T2, 5-hydroxytryptamine receptor 1A; assay: Biased agonist activity at Gal4-VP16 transcription factor linked human 5-HT1A receptor expressed in human U2OS cells assessed as induction of beta-arrestin2 recruitment measured after 5 hrs by Tango assay; assay type: cell-based
[7] = Stability in rat liver microsomes assessed as parent compound remaining at 50 uM preincubated for 5 mins followed by NADPH addition and measured after 2 hrs by LC-MS analysis; assay type: ADME, Microsome; conditions: time 125 min, read-out: Stabilty
[8] = Permeability of the compound at 100 uM measured after 40 mins by PAMPA; assay type: ADME; conditions: read-out: permeability
[9] = Drug uptake in Wistar rat brain at 0.31 to 1.25 mg/kg, po by HPLC analysis; assay type: ADME, organism-based; conditions: in vivo, dose 0.31-1.25 mg/kg
Rattus norvegicus [10] = assay: Antidepressant activity in Wistar rat assessed as reduction in immobility time at […], po treated 60 mins prior to testing and measured during the 5 min test period in presence of WAY100635 by Porsolt-forced swim test; assay type: functional, organism-based
[11] = Toxicity in po dosed Wistar rat assessed as induction of lower lip retraction at 2 times MED treated for 10 mins; assay type: organism-based; conditions: in vivo
[12] = Drug uptake in Wistar rat serum at 0.31 to 1.25 mg/kg, po by HPLC analysis; assay type: ADME, organism-based; conditions: in vivo, dose 0.31-1.25 mg/kg
Rattus norvegicus [13] = assay: Antidepressant activity in po dosed Wistar rat assessed as reduction in immobility time treated 60 mins prior to testing and measured during the 5 min test period by Porsolt-forced swim test; assay type: functional; conditions: 1 h, read-out: MED
[14] = Hepatotoxicity in human HepG2 cells assessed as concentration required to show 50% cell viability measured after 72 hrs by celltiter 96 aqueous non-Radioactive cell proliferation assay; assay type: toxicity, cell-based; conditions: read-out: Activity
[15] = Drug uptake in Wistar rat serum at 0.04 to […], po by HPLC analysis; assay type: ADME, organism-based; conditions: in vivo, dose 0.04-0.63 mg/kg
[16] = Toxicity in po dosed Wistar rat assessed as induction of lower lip retraction at 4 times MED treated for 10 mins; assay type: organism-based; conditions: in vivo
[17] = Drug uptake in Wistar rat brain at 0.04 to […], po by HPLC analysis; assay type: ADME, organism-based; conditions: in vivo, dose 0.04-0.63 mg/kg

Structure (SMILES): Cc1cnc(CNCC2(F)CCN(C(=O)c3ccc(F)c(Cl)c3)CC2)nc1
pKi [1]: < 6
EC50 [2]: 302 nM

Structure (SMILES): O=C(c1ccc(F)c(Cl)c1)N1CCC(F)(CNCCOc2cccc(C(F)(F)F)c2)CC1
pKi [1]: < 6

Structure (SMILES): CC1(C)Cc2cccc(OCCNCC3(F)CCN(C(=O)c4ccc(F)c(Cl)c4)CC3)c2O1
pKi [1]: 7.76

Structure (SMILES): CN(C)c1cccc(OCCNCC2(F)CCN(C(=O)c3ccc(F)c(Cl)c3)CC2)c1
pKi [1]: < 6

Structure (SMILES): O=C(c1ccc(F)c(Cl)c1)N1CCC(F)(CNCCOc2cccc3[nH]ccc23)CC1
Papp at 40 min, 100 µM [8]: 4.7 ×10⁻⁶ cm/s
Drug uptake [9]: Active
Activity (Rattus norvegicus [10]): inactive
Activity [11]: Toxic
Drug uptake [12]: Active
minimal effective dose (Rattus norvegicus [13]): 0.63 mg/kg
CC50 at 72 h [14]: > 50000 nM

Structure (SMILES): O=C(c1ccc(F)c(Cl)c1)N1CCC(F)(CNCCOc2cccc3cccnc23)CC1
remaining at 2 h, 50 µM [7]: 73%

Structure (SMILES): COc1cccc2c1C(=O)c1c(O)c3c(c(O)c1C2=O)C[C@@](O)(C(=O)CO)C[C@@H]3O[C@H]1C[C@H](N)[C@H](O)[C@H](C)O1 [DOXORUBICIN]
CC50 at 72 h [14]: < 1000 nM

Structure (SMILES): O=C(c1ccc(F)c(Cl)c1)N1CCC(F)(CNCCOc2cccc3c2CCN3)CC1
pKi [1]: 6.36
EC50 [3]: 0.00363 nM
EC50 [2]: 3.55 nM
Ki [4]: 0.0447 nM
EC50 [5]: 0.0132 nM
Ki (D(2) dopamine receptor): > 1000 nM
EC50 [6]: 0.00513 nM

Structure (SMILES): COc1ccc(OCCNCC2(F)CCN(C(=O)c3ccc(Cl)c(Cl)c3)CC2)cc1
pKi [1]: < 6

Structure (SMILES): CNc1ccccc1OCCNCC1(F)CCN(C(=O)c2ccc(F)c(Cl)c2)CC1
Papp at 40 min, 100 µM [8]: 6.7 ×10⁻⁶ cm/s
Drug uptake [15]: Active
pKi [1]: 6.04
Activity [16]: Non-Toxic
remaining at 2 h, 50 µM [7]: 54%
Drug uptake [17]: Active
minimal effective dose (Rattus norvegicus [13]): 0.16 mg/kg

Structure (SMILES): N#CC(C#N)=NNc1cccc(Cl)c1 [CARBONYL CYANIDE M-CHLOROPHENYLHYDRAZONE]
CC50 at 72 h [14]: < 10000 nM

Structure (SMILES): O=C(c1ccc(F)c(Cl)c1)N1CCC(F)(CNCCOc2ccccc2F)CC1
pKi [1]: < 6

Structure (SMILES): CC(=O)Nc1cccc(OCCNCC2(F)CCN(C(=O)c3ccc(Cl)c(Cl)c3)CC2)c1
pKi [1]: < 6

More lines, main results first:

pKi [1]: 6.2
EC50 [3]: 20 nM
EC50 [2]: 646 nM
Ki [4]: 0.0204 nM
EC50 [5]: 39.8 nM
Ki (D(2) dopamine receptor): > 1000 nM
EC50 [6]: 617 nM
Structure (SMILES): O=C(c1ccc(Cl)c(Cl)c1)N1CCC(F)(CNCCOc2cccc(F)c2)CC1

remaining at 2 h, 50 µM [7]: 73%
Structure (SMILES): CC(=O)Nc1cccc(OCCNCC2(F)CCN(C(=O)c3ccc(F)c(Cl)c3)CC2)c1

pKi [1]: < 6
Ki [4]: 0.0251 nM
Ki (D(2) dopamine receptor): > 1000 nM
Structure (SMILES): O=C(c1ccc(Cl)c(Cl)c1)N1CCC(F)(CNCCOc2cccc(Cl)c2)CC1

remaining at 2 h, 50 µM [7]: 54%
Structure (SMILES): O=C(c1ccc(F)c(Cl)c1)N1CCC(F)(CNCCOc2ccccn2)CC1

pKi [1]: < 6
Structure (SMILES): O=C(c1ccc(F)c(Cl)c1)N1CCC(F)(CNCCOc2ccccc2Cl)CC1

Papp at 40 min, 100 µM [8]: 8.6 ×10⁻⁶ cm/s
remaining at 2 h, 50 µM [7]: 54%
Structure (SMILES): O=C(c1ccc(F)c(Cl)c1)N1CCC(F)(CNCCOc2ccccc2)CC1
CC50 at 72 h [14]: > 50000 nM
